{
  "source": "patent US10577368B2",
  "about": "(The United States of America, as represented by the …, priority 2013, dated 2020)",
  "key": {"[1]": {"assay": "Stability in liver microsomes, rat", "format": "in vitro ADME", "settings": "liver microsomes, read-out: Stability in liver microsomes (t1/2, min): Rat"}, "[2]": {"assay": "Stability in simulated fluids (gastric, intestinal)", "format": "in vitro ADME", "text": "In vitro stability parameters for selected compounds are set forth in Table 6, in accordance with an embodiment of the invention."}, "[3]": {"molecular_target": "Alpha 2A adrenergic receptor (Homo sapiens (Human), UniProt P08913)", "sequence (P08913 whole entry)": "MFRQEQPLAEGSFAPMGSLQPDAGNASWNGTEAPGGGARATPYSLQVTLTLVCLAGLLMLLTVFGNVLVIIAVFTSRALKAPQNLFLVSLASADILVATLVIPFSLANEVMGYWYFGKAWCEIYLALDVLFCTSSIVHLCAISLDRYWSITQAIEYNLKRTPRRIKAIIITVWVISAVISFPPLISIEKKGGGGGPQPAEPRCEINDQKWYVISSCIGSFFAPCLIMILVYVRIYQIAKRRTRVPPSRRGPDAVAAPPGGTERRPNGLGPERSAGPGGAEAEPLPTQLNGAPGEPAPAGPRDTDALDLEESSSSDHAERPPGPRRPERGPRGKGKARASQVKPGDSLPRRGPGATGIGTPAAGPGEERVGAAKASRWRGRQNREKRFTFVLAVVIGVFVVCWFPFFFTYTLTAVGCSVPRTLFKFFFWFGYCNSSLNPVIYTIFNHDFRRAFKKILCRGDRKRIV", "assay": "Off-target binding, α2A", "text": "(§1) The results are set forth below."}, "α1D adrenergic receptor": {"molecular_target": "α1D adrenergic receptor (Homo sapiens (Human), UniProt P25100)", "sequence (P25100 whole entry)": "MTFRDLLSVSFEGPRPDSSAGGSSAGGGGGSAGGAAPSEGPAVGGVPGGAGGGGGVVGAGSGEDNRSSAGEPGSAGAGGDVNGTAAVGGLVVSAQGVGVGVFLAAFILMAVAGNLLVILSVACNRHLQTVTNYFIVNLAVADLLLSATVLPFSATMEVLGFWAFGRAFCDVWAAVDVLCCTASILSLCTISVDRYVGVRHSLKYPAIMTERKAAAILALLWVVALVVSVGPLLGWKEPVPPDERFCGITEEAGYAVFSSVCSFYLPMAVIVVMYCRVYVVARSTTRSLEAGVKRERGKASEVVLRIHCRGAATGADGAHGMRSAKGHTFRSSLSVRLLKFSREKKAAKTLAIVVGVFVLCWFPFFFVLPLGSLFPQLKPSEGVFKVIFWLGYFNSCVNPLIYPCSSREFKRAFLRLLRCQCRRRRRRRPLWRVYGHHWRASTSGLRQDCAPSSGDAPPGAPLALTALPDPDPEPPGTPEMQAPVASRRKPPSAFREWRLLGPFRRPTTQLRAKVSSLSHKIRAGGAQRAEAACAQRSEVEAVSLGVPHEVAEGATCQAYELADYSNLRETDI", "assay": "Off-target binding, α1D", "text": "as §1"}, "mA3AR": {"molecular_target": "mA3AR (Mus musculus (Mouse), UniProt Q61618)", "sequence (Q61618 whole entry)": "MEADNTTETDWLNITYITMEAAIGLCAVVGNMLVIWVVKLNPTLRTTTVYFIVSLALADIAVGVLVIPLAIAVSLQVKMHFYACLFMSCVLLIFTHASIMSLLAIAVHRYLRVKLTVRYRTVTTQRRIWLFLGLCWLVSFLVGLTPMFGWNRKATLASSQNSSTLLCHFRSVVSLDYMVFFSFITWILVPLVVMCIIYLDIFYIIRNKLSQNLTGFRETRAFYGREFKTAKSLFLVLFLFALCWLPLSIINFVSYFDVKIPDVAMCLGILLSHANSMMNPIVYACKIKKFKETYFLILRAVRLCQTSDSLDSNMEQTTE", "assay": "Competition binding at mA3AR, HEK293 cell membranes"}, "human DAT": {"molecular_target": "human DAT (Homo sapiens (Human), UniProt Q01959)", "sequence (Q01959 whole entry)": "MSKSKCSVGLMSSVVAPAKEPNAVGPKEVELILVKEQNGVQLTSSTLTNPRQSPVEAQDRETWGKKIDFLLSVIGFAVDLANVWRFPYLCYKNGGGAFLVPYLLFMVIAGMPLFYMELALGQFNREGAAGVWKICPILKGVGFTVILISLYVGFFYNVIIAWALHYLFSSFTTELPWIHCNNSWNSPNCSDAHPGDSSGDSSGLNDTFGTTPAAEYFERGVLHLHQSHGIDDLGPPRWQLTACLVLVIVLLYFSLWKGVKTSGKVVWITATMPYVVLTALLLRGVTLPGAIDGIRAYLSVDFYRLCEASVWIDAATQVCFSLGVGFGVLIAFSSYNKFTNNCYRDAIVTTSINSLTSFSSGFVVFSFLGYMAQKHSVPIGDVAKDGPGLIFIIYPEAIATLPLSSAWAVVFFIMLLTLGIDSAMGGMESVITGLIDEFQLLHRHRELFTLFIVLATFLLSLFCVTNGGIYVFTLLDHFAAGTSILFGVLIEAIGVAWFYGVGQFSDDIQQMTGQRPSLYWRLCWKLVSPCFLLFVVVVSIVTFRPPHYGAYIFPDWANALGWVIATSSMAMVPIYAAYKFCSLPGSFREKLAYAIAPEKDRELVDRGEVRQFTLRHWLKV", "assay": "Radioligand ([3H]WIN35428) binding at the dopamine transporter", "settings": "off-target binding"}, "[4]": {"assay": "Stability in liver microsomes, human", "format": "in vitro ADME", "settings": "liver microsomes, read-out: Stability in liver microsomes (t1/2, min): Human"}, "mA2AAR": {"molecular_target": "mA2AAR (Mus musculus (Mouse), UniProt Q60613)", "sequence (Q60613 whole entry)": "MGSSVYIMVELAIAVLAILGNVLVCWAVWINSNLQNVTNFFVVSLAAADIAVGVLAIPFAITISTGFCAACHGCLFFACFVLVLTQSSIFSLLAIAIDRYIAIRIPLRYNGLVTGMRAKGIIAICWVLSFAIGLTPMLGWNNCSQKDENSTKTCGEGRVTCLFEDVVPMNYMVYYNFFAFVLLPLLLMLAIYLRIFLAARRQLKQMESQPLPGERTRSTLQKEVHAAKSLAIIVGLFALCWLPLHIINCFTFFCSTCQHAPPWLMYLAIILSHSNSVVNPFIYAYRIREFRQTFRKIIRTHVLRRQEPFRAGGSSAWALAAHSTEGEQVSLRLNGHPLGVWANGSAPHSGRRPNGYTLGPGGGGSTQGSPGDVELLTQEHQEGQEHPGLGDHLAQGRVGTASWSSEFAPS", "assay": "Competition binding at mA2AAR, HEK293 cell membranes", "settings": "read-out: A2AAR % inhibition, mouse data (m) (converted)"}, "hA2AAR": {"molecular_target": "hA2AAR (Homo sapiens (Human), UniProt P29274)", "sequence (P29274 whole entry)": "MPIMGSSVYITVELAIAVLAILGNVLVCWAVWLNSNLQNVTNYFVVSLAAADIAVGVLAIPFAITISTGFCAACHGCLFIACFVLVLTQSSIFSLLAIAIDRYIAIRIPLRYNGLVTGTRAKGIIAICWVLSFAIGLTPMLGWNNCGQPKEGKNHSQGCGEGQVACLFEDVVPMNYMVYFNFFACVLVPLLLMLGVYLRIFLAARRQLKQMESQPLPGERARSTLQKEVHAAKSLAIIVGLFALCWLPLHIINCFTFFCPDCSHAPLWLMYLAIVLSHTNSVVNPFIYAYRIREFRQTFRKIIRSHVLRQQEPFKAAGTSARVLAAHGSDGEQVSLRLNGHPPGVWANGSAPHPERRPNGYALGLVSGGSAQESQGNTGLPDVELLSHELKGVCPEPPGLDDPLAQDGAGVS", "assay": "Radioligand binding at hA2AAR, HEK293 cell membranes, [3H]CGS21680", "settings": "read-out: hA2AAR % inhibition"}, "[5]": {"tested_on": "muscarinic, adrenergic, dopamine, GABA, histamine, opiate, serotonin receptors and transporters", "assay": "Off-target binding panel (receptors and transporters of Table 5)", "text": "as §1"}, "[6]": {"molecular_target": "Alpha 2C adrenergic receptor (Homo sapiens (Human), UniProt P18825)", "sequence (P18825 whole entry)": "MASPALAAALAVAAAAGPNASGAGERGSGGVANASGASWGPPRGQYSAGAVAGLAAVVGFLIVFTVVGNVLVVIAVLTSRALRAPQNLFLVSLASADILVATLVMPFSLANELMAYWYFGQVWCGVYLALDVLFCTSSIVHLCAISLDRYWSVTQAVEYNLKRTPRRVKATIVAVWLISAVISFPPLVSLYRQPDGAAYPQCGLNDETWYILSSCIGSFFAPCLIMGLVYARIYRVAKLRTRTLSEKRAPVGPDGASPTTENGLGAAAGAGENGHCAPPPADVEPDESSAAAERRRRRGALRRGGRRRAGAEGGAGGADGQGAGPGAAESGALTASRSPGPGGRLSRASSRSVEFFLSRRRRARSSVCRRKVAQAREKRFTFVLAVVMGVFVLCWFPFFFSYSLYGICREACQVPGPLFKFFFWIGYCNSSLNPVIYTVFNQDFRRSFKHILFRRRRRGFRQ", "assay": "Off-target binding, α2C", "settings": "read-out: Ki at α2C", "text": "as §1"}, "[7]": {"molecular_target": "Alpha 1B adrenergic receptor (Homo sapiens (Human), UniProt P35368)", "sequence (P35368 whole entry)": "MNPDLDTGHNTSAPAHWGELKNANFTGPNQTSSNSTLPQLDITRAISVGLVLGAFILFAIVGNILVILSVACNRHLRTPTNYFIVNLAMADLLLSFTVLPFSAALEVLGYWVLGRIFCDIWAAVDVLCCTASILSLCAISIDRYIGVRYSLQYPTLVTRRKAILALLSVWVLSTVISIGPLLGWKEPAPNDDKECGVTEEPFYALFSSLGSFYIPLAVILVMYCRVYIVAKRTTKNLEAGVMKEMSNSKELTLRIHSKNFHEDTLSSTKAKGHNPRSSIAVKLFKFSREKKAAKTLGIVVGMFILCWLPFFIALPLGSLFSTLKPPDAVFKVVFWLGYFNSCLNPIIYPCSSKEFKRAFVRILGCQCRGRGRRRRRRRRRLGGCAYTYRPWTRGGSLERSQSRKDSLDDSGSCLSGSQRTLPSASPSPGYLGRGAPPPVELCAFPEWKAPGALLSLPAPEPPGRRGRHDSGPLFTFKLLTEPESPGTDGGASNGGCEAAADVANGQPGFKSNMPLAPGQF", "assay": "Off-target binding, α1B", "text": "as §1"}, "[8]": {"assay": "Stability in liver microsomes, mouse", "format": "in vitro ADME", "settings": "liver microsomes, read-out: Stability in liver microsomes (t1/2, min): Mouse"}, "SERT": {"molecular_target": "SERT (Homo sapiens (Human), UniProt P31645)", "sequence (P31645 whole entry, species assumed)": "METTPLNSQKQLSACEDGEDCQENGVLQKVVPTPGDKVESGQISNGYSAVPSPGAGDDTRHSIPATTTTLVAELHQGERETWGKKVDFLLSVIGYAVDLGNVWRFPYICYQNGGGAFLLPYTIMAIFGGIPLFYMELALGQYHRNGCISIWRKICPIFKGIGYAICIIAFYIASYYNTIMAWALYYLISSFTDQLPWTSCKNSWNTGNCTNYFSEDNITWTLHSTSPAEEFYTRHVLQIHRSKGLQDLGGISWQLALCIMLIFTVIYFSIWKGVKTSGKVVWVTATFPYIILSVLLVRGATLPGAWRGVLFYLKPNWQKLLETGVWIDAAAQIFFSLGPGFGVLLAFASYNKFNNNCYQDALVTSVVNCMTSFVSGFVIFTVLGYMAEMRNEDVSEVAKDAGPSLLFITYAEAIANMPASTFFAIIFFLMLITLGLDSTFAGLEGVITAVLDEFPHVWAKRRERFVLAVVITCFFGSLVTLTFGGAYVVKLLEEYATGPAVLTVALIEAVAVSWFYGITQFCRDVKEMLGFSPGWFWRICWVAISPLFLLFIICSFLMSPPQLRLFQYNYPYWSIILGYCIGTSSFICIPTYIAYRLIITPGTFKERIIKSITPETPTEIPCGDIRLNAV", "assay": "Off-target binding, SERT", "text": "as §1"}, "hA1AR": {"molecular_target": "hA1AR (Homo sapiens (Human), UniProt P30542)", "sequence (P30542 whole entry)": "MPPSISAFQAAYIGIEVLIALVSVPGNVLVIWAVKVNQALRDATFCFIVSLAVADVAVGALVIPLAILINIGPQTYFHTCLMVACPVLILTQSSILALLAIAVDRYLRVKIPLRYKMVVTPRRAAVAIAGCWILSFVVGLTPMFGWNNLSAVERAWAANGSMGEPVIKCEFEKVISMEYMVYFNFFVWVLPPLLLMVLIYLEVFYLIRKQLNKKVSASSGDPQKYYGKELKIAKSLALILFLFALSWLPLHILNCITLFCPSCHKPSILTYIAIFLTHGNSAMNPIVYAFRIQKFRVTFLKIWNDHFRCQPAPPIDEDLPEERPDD", "assay": "Radioligand binding at hA1AR, CHO cell membranes, [3H]R-PIA", "settings": "read-out: hA1AR % inhibition"}, "[9]": {"tested_on": "chronic constriction injury model of neuropathic pain", "assay": "CCI model of neuropathic pain, reversal of mechano-allodynia", "format": "in vivo, mice"}, "[10]": {"tested_on": "CYP1A2, CYP2C9, CYP2C19, CYP2D6, CYP3A4", "assay": "Inhibition of 5 CYP isozymes", "format": "in vitro ADME", "settings": "human"}, "[11]": {"settings": "3 μmol/kg p.o., mice, ipsilateral hind paw"}},
  "note": "Read-outs that look alike come from different tables or passages of the source.",
  "data": [
    {"smiles": "CNC(=O)[C@@]12C[C@@H]1[C@@H](n1cnc3c(NC)nc(C#Cc4cnccn4)nc31)[C@H](O)[C@@H]2O", "note": "[Compound 7, (1S,2R,3S,4R,5S)-2,3-Dihydroxy-N-methyl-4-(6-(methylamino)-2-(pyrazin-2-ylethynyl)-9H-purin-9-yl)bicyclo[3.1.0]hexane-1-carboxamide]", "values": [
      {"measurement": "half-life", "setting": "[1]", "result": "> 145", "unit": "min"},
      {"measurement": "half-life", "setting": "[2]; simulated gastric fluid, read-out: Stability in simulated fluids (t1/2, min): Gastric", "result": "> 480", "unit": "min"},
      {"measurement": "half-life", "setting": "[2]; simulated intestinal fluid, read-out: Stability in simulated fluids (t1/2, min): Intestinal", "result": "> 480", "unit": "min"},
      {"measurement": "Ki", "setting": "[3]", "result": 7.9, "unit": "µM"},
      {"measurement": "Ki", "setting": "α1D adrenergic receptor", "result": 4.3, "unit": "µM"},
      {"measurement": "Ki", "setting": "mA3AR", "result": "0.068 ± 0.005", "unit": "µM"},
      {"measurement": "Ki", "setting": "human DAT; read-out: Ki at DAT", "result": 1.8, "unit": "µM"},
      {"measurement": "Ki", "setting": "human DAT; read-out: Ki class at DAT", "result": "1 to 10", "unit": "µM"},
      {"measurement": "half-life", "setting": "[4]", "result": 236, "unit": "min"},
      {"measurement": "inhibition at 10 µM", "setting": "mA2AAR", "result": 12, "unit": "%"},
      {"measurement": "inhibition at 10 µM", "setting": "hA2AAR", "result": "25 ± 9", "unit": "%"},
      {"measurement": "Off-target effects compared with MRS5698 and MRS5676", "setting": "[5]", "result": "significantly fewer off-target effects"},
      {"measurement": "Interactions at other receptors of the off-target panel", "setting": "[5]; 10 μM", "result": "No interactions at other receptors"},
      {"measurement": "Ki", "setting": "[6]", "result": 6.8, "unit": "µM"},
      {"measurement": "Ki", "setting": "[7]; read-out: Ki at α1B", "result": 9.4, "unit": "µM"},
      {"measurement": "Ki", "setting": "[7]; read-out: Ki class at α1B", "result": "1 to 10", "unit": "µM"},
      {"measurement": "half-life", "setting": "[8]", "result": "> 145", "unit": "min"},
      {"measurement": "Ki", "setting": "SERT; read-out: Ki at SERT", "result": "> 10", "unit": "µM"},
      {"measurement": "Ki", "setting": "SERT; read-out: Ki class at SERT", "result": "> 10", "unit": "µM"},
      {"measurement": "inhibition at 10 µM", "setting": "hA1AR", "result": 37, "unit": "%"},
      {"measurement": "Max. effect Emax (% ± SEM)", "setting": "[9]; [11]", "result": "100 ± 0.0", "unit": "%"},
      {"measurement": "Time of peak protection", "setting": "[9]; [11]", "result": 1, "unit": "h"},
      {"measurement": "Efficacy in reversing NP in vivo (of full reversal at peak effect)", "setting": "[9]; CCI model", "result": "~100", "unit": "%"},
      {"measurement": "IC50", "setting": "[10]", "result": "> 10", "unit": "µM"}
    ]}
  ]
}
